Experimental data as given in patent publication US7125871B2, “Excitatory amino acid receptor modulators” (Eli Lilly and Company, priority 2000, dated 2006).

Target: T1, mGluR2 (Homo sapiens, UniProt Q14416)
T1 construct: expressed in transfected cells
Test: reversal of [3H] LY341495 binding at mGluR2
Details: [3H] LY341495 radioligand; cells expressing human mGluR subtypes
Experimental: (D. D. Schoepp, et al., Neuropharmacol., 1996, 35, 1661–1672 and 1997, 36, 111).
LY341495 binding with a Ki of less than 30,000 nM at […]. […] (LY341495 is described in Ornstein et al., J. Med. Chem., 1998, 41, 346–357 and J. Med. Chem., 1998, 41, 358 to 378).

T1 sequence (Q14416 19-872): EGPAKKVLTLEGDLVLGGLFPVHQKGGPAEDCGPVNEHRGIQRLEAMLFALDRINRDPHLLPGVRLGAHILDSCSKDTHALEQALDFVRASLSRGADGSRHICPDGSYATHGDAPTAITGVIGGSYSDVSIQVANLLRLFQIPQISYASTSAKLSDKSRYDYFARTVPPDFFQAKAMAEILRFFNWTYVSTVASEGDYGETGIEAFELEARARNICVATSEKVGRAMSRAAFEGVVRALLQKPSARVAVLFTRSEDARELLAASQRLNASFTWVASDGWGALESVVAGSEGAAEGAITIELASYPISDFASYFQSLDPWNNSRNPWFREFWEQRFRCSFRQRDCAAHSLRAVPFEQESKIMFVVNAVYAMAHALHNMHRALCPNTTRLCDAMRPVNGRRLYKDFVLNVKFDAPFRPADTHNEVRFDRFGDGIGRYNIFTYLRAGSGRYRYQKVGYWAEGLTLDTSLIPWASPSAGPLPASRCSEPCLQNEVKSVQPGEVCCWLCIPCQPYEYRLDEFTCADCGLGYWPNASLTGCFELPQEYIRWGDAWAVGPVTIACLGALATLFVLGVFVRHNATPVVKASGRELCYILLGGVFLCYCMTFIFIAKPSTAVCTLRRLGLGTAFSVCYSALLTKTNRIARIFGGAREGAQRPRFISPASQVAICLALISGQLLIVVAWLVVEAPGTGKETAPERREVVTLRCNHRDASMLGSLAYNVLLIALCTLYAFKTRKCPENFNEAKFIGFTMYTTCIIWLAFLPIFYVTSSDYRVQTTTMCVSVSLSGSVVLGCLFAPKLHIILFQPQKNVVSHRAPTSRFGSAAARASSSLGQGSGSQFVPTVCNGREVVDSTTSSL

Ki: 3.42 µM
Compound: N[C@H](C(=O)O)[C@@H]1[C@@H](C(=O)O)[C@@H]1C(=O)NCc1ccccc1 (racemic) [Example 1, (2SR, 1′SR, 2′RS, 3′RS)-2-[2′-carboxy-3′-(phenylmethylaminocarbonyl)cyclopropyl]glycine]
